Measured values reported in US9562053B2, “Benzo-fused heterocyclic derivatives useful as agonists of GPR120” (Janssen Pharmaceutica NV, priority 2013, dated 2017).

Tests used:
Human GPR120 short form = molecular target: T1, Human GPR120 short form (Homo sapiens, UniProt Q5NUL3); assay: Human GPR120 in Calcium Flux Assay, Procedure Calcium B (4200 cells/well); assay type: cell-based
T1 construct: expressed in transfected cells
T1 sequence (Q5NUL3 1-361): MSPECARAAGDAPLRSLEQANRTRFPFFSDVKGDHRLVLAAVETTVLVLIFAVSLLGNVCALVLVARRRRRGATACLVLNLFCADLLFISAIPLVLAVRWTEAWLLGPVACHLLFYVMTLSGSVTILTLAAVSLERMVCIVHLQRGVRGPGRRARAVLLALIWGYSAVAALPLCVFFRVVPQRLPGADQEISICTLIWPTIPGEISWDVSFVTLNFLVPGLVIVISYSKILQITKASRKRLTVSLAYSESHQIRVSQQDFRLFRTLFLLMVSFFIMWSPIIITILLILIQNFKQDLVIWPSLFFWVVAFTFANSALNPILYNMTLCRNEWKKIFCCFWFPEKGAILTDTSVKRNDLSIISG
Excerpt: This in vitro assay serves to assess test compound agonist activity against the short splice variant (SVS with Accession number NM_001195755.1 confirmed by sequencing data) of the GPR120 receptor. The Human Short splice variant #2 (NM_001195755.1) is missing an in-frame coding exon compared to variant 1 (the Human Long splice variant NM_181745.3), resulting in a shorter isoform (GPR120-S) lacking a 16 aa protein segment compared to isoform GPR120-L. The assay platform utilizes HEK-293 cells stably transfected to express the Human GPR120 short form. These cells are first loaded with the Ca^+2 sensitive dye, Fluo-4 NW. Upon stimulation, intracellular released Ca^+2 can bind to the dye and alter its fluorescence intensity. This increase in fluorescence signal, and thus the flux in intracellular [Ca^+2], is detected and quantitated by fluorescence imaging using a FLIPR reader. The effect of the agonist is measured as a function of concentration and used to calculate an EC50 based upon a response curve.
In this procedure 4200 cells/well were employed.
A Human GPR120 clone (Genbank accession number NM_001195755.1) was placed into the pcDNA3.1 mammalian expression vector carrying the neomycin resistance gene. A stable mammalian cell was generated by placing the above clone into a HEK293 background. Clonal cells responding to long chain fatty acids had expression levels of GPR120 confirmed by RT-qPCR. Human HEK-GPR120 cells were cultured in Dulbecco's Modified Eagle's Medium (DMEM)/F12 medium supplemented with 10% fetal bovine serum (FBS), 1% L-Glutamine and 1% penicillin/streptomycin and 0.5 mg/ml G-418. Cells were split 2 times a week to keep the cells in the log-phase growth.
In preparation for the assay, HEK cells stably transfected with Human GPR120 (2.5K cells per well in 25 uL growth medium) were seeded into 384-well plates and then incubated overnight (37° C., 5% CO2). The next day, the media was changed to 20 μl assay buffer and the cell starved for 1 h at 37° C. The dye loading solution (2× dye) was prepared using 10 ml assay buffer, 100 μl of 250 mM probenecid, 1 bottle of Component A, and 20 μl of dye in DMSO. Twenty μl of the 2× dye loading buffer was then added to each well. The plates were incubated at 37° C. for 30 min, then at room temperature for an additional 15 minutes, before performing the assay on FLIPR.
Test compounds were prepared in assay buffer (2 μl of test compound+198 μl assay buffer, final DMSO in assay plate is 0.2%) at the desired concentration, more particularly at 100 μM, 50 μM, 25 μM, 12.5 μM, 6.25 μM, 3.125 μM, 1.562 μM, 0.781 μM, 0.391 μM, 0.195 μM, 0.098 μM, 0.049 μM, 0.024 μM and 0.012 μM.
The assay was performed on a FLIPR plate reader using the following parameters. Baseline was read for 10 seconds at 1 sec intervals. The program was set to transfer 10 μL of ligand from compound plate to cell plate after baseline reading. Aspiration was executed at: 10 μl/sec speed, 4.6 μl height; Dispensing was executed at: 30 μl/sec speed, 45 μl height. After compound addition, each well was read for 300 sec, with measurements collected at 1 sec intervals.
The kinetic data from the FLIPR was based upon a 5 minute window for data collection. The fluorescence of each sample well was used for individual calculations of a normalized RFU value, which was defined as maximum response minus the minimum response. The normalized fluorescence reading (RFU) was calculated as follows: RFU=Fmax−Fmin
(§1) The data were fitted to a sigmoidal dose-response curve with a variable Hill slope (<2) using nonlinear regression with GraphPad Prism 5.0 to calculate the EC50 values. The Fitting Equation was: Y=Bottom+(Top−Bottom)/(1+10^((LogEC50−X)*HillSlope)), where X is the log of the concentration and Y is the response.

[1] = molecular target: T2, short form of the GPR120 receptor (Homo sapiens, UniProt Q5NUL3); assay: Human GPR120 DiscoveRx PathHunter Beta-Arrestin Assay, Procedure β-arrestin B (5000 cells/well); assay type: cell-based
T2 construct: host or cells: PathHunter CHO-K1 GPR120S β-Arrestin Cell Line
T2 sequence (Q5NUL3 1-361): T1 sequence (Q5NUL3 1-361)
Excerpt: (§2) The binding of an agonist (medium/long chain fatty acids or small molecule agonists) to the G-protein-coupled receptor GPR120 activates phospholipase C, leading to release of intracellular Ca^+2 through the generation of inositol 1,4,5-trisphosphate (InsP3 or IP3). GPR120 activation can also trigger intracellular signaling via recruitment of β-Arrestin. In the present method, agonist-induced activation of the human GPR120 receptor is monitored through the use of PathHunter CHO-K1 GPR120 β-Arrestin Cell Line engineered by DiscoveRx, as detailed below. The cell lines are designed to co-express both the ProLink/Enzyme Donor (PK)-tagged GPCR and the Enzyme Activator (EA)-tagged β-Arrestin fusion proteins. Upon GPR120 receptor stimulation/activation, the EA-tagged β-Arrestin portion is translocated to the tagged receptor, where the two enzyme fragments are brought within close proximity. Under these conditions, these fragments can interact and form an active Beta-gal enzyme complex through Enzyme Fragment Complementation (EFC). This active Beta-gal complex can enzymatically hydrolyse the substrate to produce a detectable light signal; therefore, activation as a function of agonist concentration can be expressed as an EC50 value to determine relative compound activities. This in vitro assay therefore serves to assess compound agonist activity of the GPR120.
In Procedure β-arrestin B the cells used were PathHunter CHO-K1 GPR120S β-Arrestin Cell Line, expressing the short form of the GPR120 receptor (Accession #NM_181745), with 5000 cells/well.
(§3) The selected CHO-K1 GPR120 β-Arrestin cells were cultured in Ham's F12 media supplemented with 10% fetal bovine serum (FBS), 1% Glutamine, 1×p/s, 800 μg/ml G418 and 300 μg/ml Hygromycin B (for selection). Cell stocks were maintained and grown in a sub-confluent state using standard cell culture procedures. The day before the experiment, the cells were harvested with non-enzymatic cell dissociation buffer and re-suspended in complete growth media at the desired concentration. A Corning 384-plate was then seeded with the proper number of cells in a volume of 25 μL, per well. The seeded plates were incubated overnight at 37° C.
(§4) On the day of the experiment, the Assay Buffer containing (a) HBSS with Ca^++ and Mg^++, (b) 20 mM HEPES, and (c) 0.1% BSA stabilizer (pH 7.4) was prepared. The growth medium was gently removed from the cell plates and 20 μL of Assay Buffer added to each well. The plate was then incubated at 37° C. for 60 mins. Test compounds were serially diluted in Assay Buffer to desired concentrations (more particularly, to one or more of the following μM concentrations: 25 μM, 12.5 μM, 6.25 μM, 3.125 μM, 1.562 μM, 0.781 μM, 0.391 μM, 0.195 μM, 0.098 μM, 0.049 μM, 0.024 μM, 0.012 μM). Five μl of compound dilution was then added to each well and the plate incubated at 37° C. for 90 mins. The detection reagents were prepared according to the manufacture's instruction. Twelve μL of the detection reagents were added to each well and the plate incubated at room temperature for 60 mins.
(§5) The plates were read on an EnVision instrument, using Protocol name: Luminescence, Plate type: 384 Costar, Measurement height: 3 mm, Measurement time: 1 s, Aperture: 384 Plate aperture. The % activity relative to the positive control was calculated using the following equation:
as §1, with “% Activity values” for “data”, “were plotted versus the concentration of test compound and” for “were”, “a” for “a variable”, “slope=1 (fixed value)” for “slope (<2)”

C57bl/6J Mice = assay: C57bl6 mouse OGTT; assay type: in vivo
Experimental: Male, C57bl/6J Mice were ordered in at 8 weeks of age from Jackson Labs. Individual mice weighed anywhere in the range of 25-30 grams on study day. The mice were fasted, with removal of food occurring at 7 am on the morning of the study. Animals were moved into the room at 10:00 am, to give them time to acclimate. Glucose (insulin syringes) was drawn up either the night before or the morning of the study. Glucose was dosed (IP) at 1.5 g/kg at 7.5 ml/kg (20% glucose straight TEKNOVA, 250 ml sterile bottle w/catalogue number G0525). Test compounds were kept spinning and were only drawn into the syringes prior to study commencement. Animals were bled via tail snip to determine basal glucose levels prior to dosing of treatments. An Ascensia BREEZE Blood Glucose Monitoring System by Bayer (using unique 10-test disks) was used for determining glucose levels. The bleeds started at approximately 12:45 pm and dosing started, at 1-minute intervals, immediately after. All groups were dosed 30 minutes prior to glucose administration at a dose volume of 10 ml/kg (the dose volume was calculated separately for each individual animal). Thirty minutes after the first dose animals were bled again for a second baseline, or T=0, and immediately dosed with glucose via an i.p. injection. The exact dose volume for glucose was also calculated separately for each individual animal. Glucose measurements were taken at −30 min prior to compound dose, at t=0 (immediately prior to glucose dose), and at 15, 30, 45, 60, 90 min post glucose dose.
Glucose values were entered into an Excel sheet and graphed in GraphPad Prism. The following were calculated from Prism: Change from −30 to 0 BSLN Glucose, Raw Glucose AUC −30 to 90 min, Delta Glucose AUC −30 to 90 min, Raw Glucose AUC 0 to 90 min, Delta Glucose AUC 0 to 90 min.
The assay design is the same as that described above for the C57bl6 mouse IPGTT. The difference is that glucose was dosed PO at 3 g/kg, 7.5 ml/kg of 40% glucose.

[2] = molecular target: T3, long form of human GPR120 (Homo sapiens, UniProt Q5NUL3); assay: Human GPR120 DiscoveRx PathHunter Beta-Arrestin Assay, Procedure β-arrestin A (3000 cells per well); assay type: cell-based; conditions: read-out: GPR120 B-arrestin A EC50
T3 construct: host or cells: PathHunter CHO-K1 GPR120 β-Arrestin Cell Line
T3 sequence (Q5NUL3 1-377 isoform Q5NUL3-1): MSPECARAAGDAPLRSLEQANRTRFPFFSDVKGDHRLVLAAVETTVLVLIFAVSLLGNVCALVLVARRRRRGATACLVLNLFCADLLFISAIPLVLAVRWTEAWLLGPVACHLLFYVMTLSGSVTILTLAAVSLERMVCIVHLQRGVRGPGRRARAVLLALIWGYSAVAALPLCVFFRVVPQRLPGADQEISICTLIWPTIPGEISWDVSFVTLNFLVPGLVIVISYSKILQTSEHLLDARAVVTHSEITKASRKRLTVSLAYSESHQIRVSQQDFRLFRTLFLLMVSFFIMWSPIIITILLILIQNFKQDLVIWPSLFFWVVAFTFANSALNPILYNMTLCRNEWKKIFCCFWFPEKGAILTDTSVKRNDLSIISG
Excerpt: as §2
In Procedure β-arrestin A, the cell used were PathHunter CHO-K1 GPR120 β-Arrestin Cell Line, expressing the long form of human GPR120 (Genbank accession number NM_181745), with 3000 cells per well.
as §3, §4, §5
as §1, with “% Activity values” for “data”, “were plotted versus the concentration of test compound and” for “were”, “a” for “a variable”, “slope=1 (fixed value)” for “slope (<2)”

| SMILES | EC50 (Human GPR120 short form) [nM] | EC50 [1] [nM] | EC50 [2] [nM] | Dose Responses C57 OGTT (C57bl/6J Mice; 3 mg/kg) [%] | Dose Responses C57 OGTT (C57bl/6J Mice; 10 mg/kg) [%] |
| --- | --- | --- | --- | --- | --- |
| CCCc1cc2cc(F)cc(COc3ccc(CCC(=O)O)c(C)c3C)c2o1 [Compound 13, 3-{4-[(5-Fluoro-2-propyl-1-benzofuran-7-yl)methoxy]-2,3-dimethylphenyl}propanoic acid] | – | – | 302 | −16 | −16 |
| Cc1c(CCC(=O)O)ccc(OCc2cc(F)cc3sc(C(C)(C)C)nc23)c1C [Compound 107, 3-{4-[(2-tert-butyl-6-fluoro-1,3-benzothiazol-4-yl)methoxy]-2,3-dimethylphenyl}propanoic acid] | 1010 | 3920 | – | – | – |
| Cc1c(CCC(=O)O)ccc(OCc2cc(Cl)cc3sc(CC(C)C)nc23)c1C [Compound 110, 3-(4-{[6-Chloro-2-(2-methylpropyl)-1,3-benzothiazol-4-yl]methoxy}-2,3-dimethylphenyl)propanoic acid] | 949 | 3310 | – | – | – |
| Cc1cc2cc(Cl)c(CCCS(C)(=O)=O)c(COc3ccc(CCC(=O)O)c(C)c3C)c2o1 [Compound 108, 3-[4-({5-Chloro-2-methyl-6-[3-(methylsulfonyl)propyl]-1-benzofuran-7-yl}methoxy)-2,3-dimethylphenyl]propanoic acid] | 2740 | – | – | – | – |

Continued, in another order:

| EC50 (Human GPR120 short form) [nM] | EC50 [1] [nM] | EC50 [2] [nM] | SMILES | Dose Responses C57 OGTT (C57bl/6J Mice; 3 mg/kg) [%] | Dose Responses C57 OGTT (C57bl/6J Mice; 10 mg/kg) [%] |
| --- | --- | --- | --- | --- | --- |
| 107 | 299 | – | Cc1c(CCC(=O)O)ccc(OCc2cc(F)cc3sc(C(C)C)nc23)c1C [Compound 111, 3-(4-{[6-Fluoro-2-(1-methylethyl)-1,3-benzothiazol-4-yl]methoxy}-2,3-dimethylphenyl)propanoic acid] | – | – |
| 38 | 191 | – | CCc1nc2c(COc3ccc(CCC(=O)O)c(C)c3C)cc(Cl)cc2s1 [Compound 109, 3-{4-[(6-Chloro-2-ethyl-1,3-benzothiazol-4-yl)methoxy]-2,3-dimethylphenyl}propanoic acid] | – | – |
| 184 | 882 | – | Cc1c(CCC(=O)O)ccc(OCc2cc(Cl)cc3sc(C(C)C)nc23)c1C [Compound 106, 3-(4-{[6-chloro-2-(1-methylethyl)-1,3-benzothiazol-4-yl]methoxy}-2,3-dimethylphenyl)propanoic acid] | – | – |
